Results: PMC12281424, “A Rac-specific competitive inhibitor of guanine nucleotide binding reduces metastasis in triple-negative breast cancer” (Cell Reports Medicine, 2025)

Key:
NIM1(h) = NIM1(h) (Homo sapiens, UniProt Q8IY84); experiment: Kinase Profiler; type: biochemical
Protocol: (§1) The kinase profiler was performed by the company Eurofins (Discovery, Panlab and Cerep).

Phosphodiesterase PDE3 = experiment: Safety screen; type: biochemical, human
Protocol: Blood cell counts, kinase profiler, safety screen, bacterial cytotoxicity, Ames, micronucleus assays were performed by the company Eurofins (France).

PI3K (p110b/p85a)(h) = PI3K (p110b/p85a)(h) (Homo sapiens, UniProt P42338); experiment: Kinase Profiler; type: biochemical
Protocol: (§2) Blood cell counts, kinase profiler, safety screen, bacterial cytotoxicity, Ames, micronucleus assays were performed by the company Eurofins (France). The kinase profiler was performed by the company Eurofins (Discovery, Panlab and Cerep).

Potassium Channel [KATP] = Potassium Channel [KATP] (Cricetus cricetus, UniProt Q09427); experiment: Safety screen; type: binding, hamster
Protocol: as §2

STK32A(h) = STK32A(h) (Homo sapiens, UniProt Q8WU08); experiment: Kinase Profiler; type: biochemical
Protocol: as §1

RAC1 = RAC1 (Homo sapiens, UniProt P63000); experiment: Nucleotide exchange kinetics (mant-GTP/mant-GDP fluorescence); type: biochemical; design: Full-length RAC1 carrying a 6xHis tag in C-terminus was purified as previously described; 6xHis (C); made in house
Protocol: Figure 2 Identification of a new RAC1 inhibitor (A) Effect of A41 and NSC23766 on ruffle formation (white arrows) induced by EGF (10 ng/mL) in NIH 3T3 cells in serum-free culture medium (CTL). Inhibitors were added at indicated concentration 1 h prior to EGF stimulation. To assess cytoskeleton organization, cells were incubated with Alexa Fluor 488 phalloidin to visualize F-actin. Results shown are representative of 3 independent experiments. Corresponding concentration-response curves have been established by counting the percentages of cells with ruffles (scale bars: 10 μm). (B) Immunoblot analysis and associated quantification of RAC-GTP level and total RAC expression in NIH 3T3 cells stimulated by EGF (10 ng/mL, 5 min) and pre-incubated or not (−) with NSC23766, A41, or A415 at 10^−5 M for 1 h (∗∗∗p < 0.001 vs. controls without EGF stimulation, ^###p < 0.001 vs. controls with EGF stimulation) (N > 3). (C) Representative surface plasmon resonance (SPR) sensograms of binding of immobilized RAC1 with increasing concentrations of A41 with or without EDTA (20 mM) (N > 3). (D) Representative in vitro nucleotide exchange catalyzed by the DH-PH of TIAM (10 nM) measured by the binding of fluorescent mant-GTP (1 μM) to RAC1 (0.5 μM, preloaded with GDP) in the presence of indicated concentrations of A41 (out of N = 6). Dotted lines correspond to the experimental curves, and continuous lines represent the fit of experimental points. (E) Kobs and Kmax were determined in each condition (N = 6). (F) Predicted binding modes of A4 to the NSC23766-binding site (left) or the GDP-binding pocket of RAC1 (right). In the NSC23766-binding site of RAC1, the compound A4 (carbon atoms in blue) makes 2 hydrogen bonds (green dotted line) with Ser71 (S71) and 10 hydrophobic interactions (pink dotted line) with Ala3 (A3), Lys5 (K5), Val36 (V36), Trp56 (W56), Tyr64 (Y64), and Leu67 (L67) leading to a docking score of −6.03 kcal/mol. The GDP molecule is shown with fine line. The P loop is shown in yellow, the switch 1 in orange, and the switch 2 in green. In the GDP-binding pocket, A4 establishes 6 hydrogen bonds with Gly15 (G15), Lys16 (K16), Cys18 (C18), and Lys116 (K116), 1 carbon hydrogen bond with Lys116, and 9 hydrophobic interactions with Cys18, Ile33 (I33), Lys116, Leu119 (L119), and Leu160 (L160), resulting in a docking score of −10.32 kcal/mol.
Figure 3 Inhibitory mechanism of A41 (A–D) RAC1 activity was monitored by the change in mant-GTP/GDP fluorescence induced by its binding to or releasing from RAC1 (A–D). GDP-bound RAC1 (0.5 μM) was incubated with TRIO (10 nM) and the indicated concentrations of mant-GTP without and with A41 (5 μM) (A–C). Mant-GDP-bound RAC1 (0.5 μM) was incubated with TRIO (10 nM) and GTP (1 μM) without and with A41 (5 μM) (D). AU: arbitrary fluorescence units. All experiments were done in triplicate. Kmax and Kmin are expressed as mean ± SEM. ∗∗p < 0.01 and ∗∗∗p < 0.001 vs. TRIO. (E) Deconvoluted mass spectra generated from crude mass spectrum analyses to evaluate RAC1 photolabeling with [N3]-A41 by LC-HRMS on native protein. (F) Representative mass spectra of both labeled and unlabeled […] peptide during LC-HRMS analysis of RAC1 photolabeling with [N3]-A41 after trypsin digestion. (G) Predicted binding mode of A41 to the GDP-binding pocket of RAC1. Compound A41 (orange) makes 4 hydrogen bonds (green dotted line) with Lys16 (K16), Cys18 (C18), and Lys116 (K116), 2 carbon hydrogen bond (light green dotted line) with Val14 (V14) and Lys116 (K116), and 7 hydrophobic interactions (pink dotted line) with Cys18 (C18), Phe28 (F28), Lys116 (K116), Ala159 (A159), and Leu160 (L160). The P loop is shown in yellow, the switch 1 in orange, and the switch 2 in green.
Full-length RAC1 carrying a 6xHis tag in C-terminus was purified as previously described.[64] Full-length RAC2, RHOG, RHOA and CDC42 were purified as previously described.[64]^,[65] […]

Txk(h) = Txk(h) (Homo sapiens, UniProt P42681); experiment: Kinase Profiler; type: biochemical
Protocol: as §2

CDK6/cyclinD3(h) = CDK6/cyclinD3(h) (Homo sapiens, UniProt Q00534); experiment: Kinase Profiler; type: biochemical
Protocol: as §2

Tec(h) activated = Tec(h) activated (Homo sapiens, UniProt P42680); experiment: Kinase Profiler; type: biochemical
Protocol: as §2

PI3K (p110b/p85b)(m) = PI3K (p110b/p85b)(m) (Mus musculus, UniProt Q8BTI9); experiment: Kinase Profiler; type: biochemical
Protocol: as §2

MOK(h) = MOK(h) (Homo sapiens, UniProt Q9UQ07); experiment: Kinase Profiler; type: biochemical
Protocol: as §1

DDR1(h) = DDR1(h) (Homo sapiens, UniProt Q08345); experiment: Kinase Profiler; type: biochemical
Protocol: as §2

CDK3/cyclinE(h) = CDK3/cyclinE(h) (Homo sapiens, UniProt Q00526); experiment: Kinase Profiler; type: biochemical
Chain of CDK3/cyclinE(h) (P24864 whole entry): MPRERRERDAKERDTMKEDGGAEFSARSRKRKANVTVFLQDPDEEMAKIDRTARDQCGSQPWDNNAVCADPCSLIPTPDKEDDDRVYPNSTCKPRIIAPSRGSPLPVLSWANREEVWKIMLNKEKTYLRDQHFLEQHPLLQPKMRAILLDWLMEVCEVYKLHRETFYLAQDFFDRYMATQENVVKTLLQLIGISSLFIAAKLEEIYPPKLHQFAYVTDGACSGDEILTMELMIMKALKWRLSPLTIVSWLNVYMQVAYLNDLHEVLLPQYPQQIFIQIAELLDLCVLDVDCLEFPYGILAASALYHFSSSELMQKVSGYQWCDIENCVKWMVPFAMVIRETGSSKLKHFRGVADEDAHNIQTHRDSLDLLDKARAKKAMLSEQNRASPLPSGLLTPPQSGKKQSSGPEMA
Chain of CDK3/cyclinE(h) (Q00526 whole entry): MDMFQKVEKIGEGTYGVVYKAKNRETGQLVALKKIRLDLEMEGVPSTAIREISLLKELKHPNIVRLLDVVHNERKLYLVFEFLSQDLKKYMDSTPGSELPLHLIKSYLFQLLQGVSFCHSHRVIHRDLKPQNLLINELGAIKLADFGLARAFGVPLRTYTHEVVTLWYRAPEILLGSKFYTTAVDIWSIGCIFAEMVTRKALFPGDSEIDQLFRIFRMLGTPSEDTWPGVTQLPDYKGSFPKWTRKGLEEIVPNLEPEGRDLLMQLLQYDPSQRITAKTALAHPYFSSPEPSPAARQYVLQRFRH
Protocol: as §2

Chain of PI3K (p110b/p85a)(h) (P42338 whole entry): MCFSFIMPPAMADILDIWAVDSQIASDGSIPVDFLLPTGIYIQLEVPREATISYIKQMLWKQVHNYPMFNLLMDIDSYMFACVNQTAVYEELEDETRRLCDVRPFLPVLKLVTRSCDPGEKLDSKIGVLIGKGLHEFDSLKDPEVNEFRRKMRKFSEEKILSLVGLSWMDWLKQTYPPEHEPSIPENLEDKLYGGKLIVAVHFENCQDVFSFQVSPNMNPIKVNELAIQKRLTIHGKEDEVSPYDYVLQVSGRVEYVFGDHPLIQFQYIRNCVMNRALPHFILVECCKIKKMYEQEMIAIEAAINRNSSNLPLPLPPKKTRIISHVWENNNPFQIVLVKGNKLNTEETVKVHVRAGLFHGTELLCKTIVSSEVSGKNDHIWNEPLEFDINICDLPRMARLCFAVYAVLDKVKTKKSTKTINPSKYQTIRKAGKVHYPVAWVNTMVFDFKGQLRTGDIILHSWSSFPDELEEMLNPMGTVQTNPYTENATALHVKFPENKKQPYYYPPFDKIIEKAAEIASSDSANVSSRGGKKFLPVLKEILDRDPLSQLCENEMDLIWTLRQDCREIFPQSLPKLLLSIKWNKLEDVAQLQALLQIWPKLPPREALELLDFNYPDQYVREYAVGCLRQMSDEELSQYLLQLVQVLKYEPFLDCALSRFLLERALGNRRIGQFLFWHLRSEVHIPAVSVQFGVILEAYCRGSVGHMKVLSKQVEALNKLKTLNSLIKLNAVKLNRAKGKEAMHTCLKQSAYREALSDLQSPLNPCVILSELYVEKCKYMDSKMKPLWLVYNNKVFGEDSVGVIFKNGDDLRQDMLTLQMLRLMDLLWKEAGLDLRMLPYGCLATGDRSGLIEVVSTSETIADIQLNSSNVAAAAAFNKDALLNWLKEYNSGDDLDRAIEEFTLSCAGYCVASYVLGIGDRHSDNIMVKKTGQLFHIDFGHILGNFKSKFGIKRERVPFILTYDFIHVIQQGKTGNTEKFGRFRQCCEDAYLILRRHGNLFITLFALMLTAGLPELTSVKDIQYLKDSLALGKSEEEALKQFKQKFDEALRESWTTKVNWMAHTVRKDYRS
Chain of PI3K (p110b/p85a)(h) (P27986 whole entry partner): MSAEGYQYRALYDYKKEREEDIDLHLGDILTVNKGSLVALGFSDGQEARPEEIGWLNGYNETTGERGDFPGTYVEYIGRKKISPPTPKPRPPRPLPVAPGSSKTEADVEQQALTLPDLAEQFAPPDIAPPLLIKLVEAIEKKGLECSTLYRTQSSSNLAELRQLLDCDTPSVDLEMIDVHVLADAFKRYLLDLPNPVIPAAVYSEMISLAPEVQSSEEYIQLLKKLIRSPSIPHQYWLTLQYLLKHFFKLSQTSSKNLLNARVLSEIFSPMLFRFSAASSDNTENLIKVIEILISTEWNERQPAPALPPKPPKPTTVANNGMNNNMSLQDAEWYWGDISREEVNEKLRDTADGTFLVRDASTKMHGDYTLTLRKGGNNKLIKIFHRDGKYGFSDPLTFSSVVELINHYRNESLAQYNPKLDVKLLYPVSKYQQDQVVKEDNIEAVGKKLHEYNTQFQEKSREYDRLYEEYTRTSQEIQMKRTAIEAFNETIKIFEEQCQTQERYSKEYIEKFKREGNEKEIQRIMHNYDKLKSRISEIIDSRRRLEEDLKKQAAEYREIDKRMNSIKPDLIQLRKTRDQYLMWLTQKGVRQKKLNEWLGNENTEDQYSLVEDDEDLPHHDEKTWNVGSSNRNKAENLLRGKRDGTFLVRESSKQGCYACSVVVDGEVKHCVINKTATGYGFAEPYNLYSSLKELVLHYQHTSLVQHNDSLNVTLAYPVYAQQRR
Chain of Tec(h) activated (P42680 whole entry): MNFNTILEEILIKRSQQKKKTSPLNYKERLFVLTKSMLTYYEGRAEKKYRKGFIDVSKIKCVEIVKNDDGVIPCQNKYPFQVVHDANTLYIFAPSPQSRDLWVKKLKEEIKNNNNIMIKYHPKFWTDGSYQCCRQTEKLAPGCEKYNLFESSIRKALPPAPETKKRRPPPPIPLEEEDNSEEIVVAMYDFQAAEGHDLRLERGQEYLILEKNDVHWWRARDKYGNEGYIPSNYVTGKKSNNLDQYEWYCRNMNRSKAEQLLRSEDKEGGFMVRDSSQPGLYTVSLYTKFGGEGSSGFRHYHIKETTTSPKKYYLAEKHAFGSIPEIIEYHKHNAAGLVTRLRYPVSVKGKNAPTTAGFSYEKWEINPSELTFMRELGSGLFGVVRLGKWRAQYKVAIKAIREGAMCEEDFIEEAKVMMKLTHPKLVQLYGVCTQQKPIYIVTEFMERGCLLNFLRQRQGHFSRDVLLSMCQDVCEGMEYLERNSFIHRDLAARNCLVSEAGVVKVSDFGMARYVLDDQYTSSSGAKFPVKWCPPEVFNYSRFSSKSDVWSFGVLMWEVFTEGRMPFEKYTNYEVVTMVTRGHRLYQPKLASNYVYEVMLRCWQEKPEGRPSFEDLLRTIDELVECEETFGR
Chain of DDR1(h) (Q08345 19-913): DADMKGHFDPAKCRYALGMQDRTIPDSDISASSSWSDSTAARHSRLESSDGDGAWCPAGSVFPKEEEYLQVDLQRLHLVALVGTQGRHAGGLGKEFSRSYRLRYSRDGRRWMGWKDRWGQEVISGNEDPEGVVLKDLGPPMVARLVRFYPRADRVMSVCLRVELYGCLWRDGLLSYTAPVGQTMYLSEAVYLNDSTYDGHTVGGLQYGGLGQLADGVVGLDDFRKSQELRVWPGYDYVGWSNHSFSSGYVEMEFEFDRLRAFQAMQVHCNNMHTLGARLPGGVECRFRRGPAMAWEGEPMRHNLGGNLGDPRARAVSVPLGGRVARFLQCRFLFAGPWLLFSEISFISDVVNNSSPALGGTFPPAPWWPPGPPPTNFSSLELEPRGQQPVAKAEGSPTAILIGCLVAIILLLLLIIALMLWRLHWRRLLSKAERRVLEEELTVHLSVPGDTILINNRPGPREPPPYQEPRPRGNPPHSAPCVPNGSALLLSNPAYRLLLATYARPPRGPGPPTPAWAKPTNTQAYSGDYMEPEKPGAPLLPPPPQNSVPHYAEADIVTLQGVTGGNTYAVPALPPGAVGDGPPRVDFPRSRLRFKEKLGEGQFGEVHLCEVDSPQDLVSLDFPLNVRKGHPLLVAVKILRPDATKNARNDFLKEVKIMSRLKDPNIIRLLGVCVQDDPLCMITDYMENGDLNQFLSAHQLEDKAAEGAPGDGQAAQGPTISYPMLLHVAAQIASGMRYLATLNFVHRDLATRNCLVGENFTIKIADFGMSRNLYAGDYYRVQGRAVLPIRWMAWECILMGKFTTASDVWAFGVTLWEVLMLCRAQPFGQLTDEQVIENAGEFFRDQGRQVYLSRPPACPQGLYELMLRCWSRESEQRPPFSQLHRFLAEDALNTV
Chain of MOK(h) (Q9UQ07 whole entry): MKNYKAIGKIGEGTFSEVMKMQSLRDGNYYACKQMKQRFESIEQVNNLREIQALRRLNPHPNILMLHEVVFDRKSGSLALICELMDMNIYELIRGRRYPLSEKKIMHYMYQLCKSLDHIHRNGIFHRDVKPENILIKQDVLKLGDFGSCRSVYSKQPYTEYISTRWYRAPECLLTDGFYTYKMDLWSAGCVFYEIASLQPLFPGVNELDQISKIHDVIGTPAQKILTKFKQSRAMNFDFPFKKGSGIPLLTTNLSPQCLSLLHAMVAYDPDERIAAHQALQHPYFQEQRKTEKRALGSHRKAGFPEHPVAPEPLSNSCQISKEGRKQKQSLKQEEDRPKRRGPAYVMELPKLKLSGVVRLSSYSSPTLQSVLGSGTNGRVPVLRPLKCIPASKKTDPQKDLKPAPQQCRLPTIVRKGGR
Chain of Txk(h) (P42681 whole entry): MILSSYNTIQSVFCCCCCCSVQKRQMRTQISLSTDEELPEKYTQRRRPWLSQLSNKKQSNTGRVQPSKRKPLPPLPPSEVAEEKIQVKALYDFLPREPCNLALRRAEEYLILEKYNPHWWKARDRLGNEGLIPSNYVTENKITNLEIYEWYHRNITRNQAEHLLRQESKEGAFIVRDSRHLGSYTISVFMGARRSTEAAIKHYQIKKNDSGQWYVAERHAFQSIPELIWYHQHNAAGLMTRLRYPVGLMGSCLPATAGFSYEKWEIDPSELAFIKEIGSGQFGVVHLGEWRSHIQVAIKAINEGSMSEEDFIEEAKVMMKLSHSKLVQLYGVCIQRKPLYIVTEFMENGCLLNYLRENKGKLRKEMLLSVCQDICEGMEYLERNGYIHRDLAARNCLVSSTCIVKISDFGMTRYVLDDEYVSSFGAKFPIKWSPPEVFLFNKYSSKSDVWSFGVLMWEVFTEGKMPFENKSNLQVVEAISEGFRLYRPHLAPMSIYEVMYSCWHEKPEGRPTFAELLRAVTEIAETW

Structure (SMILES): COc1ccc(OC)c(NS(=O)(=O)c2ccc(NC(=O)CCSc3ccc(C)cc3)cc2)c1 [Compound A41]
- Activity(%) (NIM1(h)): 105%
- % inh. (Phosphodiesterase PDE3): 9%
- Activity(%) (PI3K (p110b/p85a)(h)): 101%
- % inh. (Potassium Channel [KATP]): 11%
- Activity(%) (STK32A(h)): 100%
- Inhibition of RAC1 activity (nucleotide exchange assay) (RAC1): 46%
- TRIO-induced GDP dissociation (RAC1; A41 5 μM, mant-GDP-bound RAC1, GTP 1 μM): no effect
- inhibitory effect on TRIO-induced nucleotide exchange (RAC1; A41 5 μM, mant-GTP 5 μM): abolished
- inhibitory effect on TRIO-induced nucleotide exchange (RAC1; A41 5 μM, mant-GTP increased from 1 to 2.5 μM): strongly decreased
- plateau (Kmax) of nucleotide exchange (RAC1; TIAM DH-PH 10 nM, mant-GTP 1 μM, concentration-dependent): decreased the plateau
- spontaneous activity of RAC1 (RAC1; no GEF): without affecting
- Activity(%) (Txk(h)): 118%
- Activity(%) (CDK6/cyclinD3(h)): 111%
- Activity(%) (Tec(h) activated): 112%
- Activity(%) (PI3K (p110b/p85b)(m)): 100%
- Activity(%) (MOK(h)): 90%
- Activity(%) (DDR1(h)): 116%
- Activity(%) (CDK3/cyclinE(h)): 77%
